Tests used:
Type in all cases: in vivo
Annual bluegrass [1] = assay: Pre-emergence herbicide test; settings: read-out: % plant inhibition (Anbg); for inhibition at 11210 g/ha: 11.21 kg/ha; for inhibition at 1120 g/ha: 1.12 kg/ha
Protocol: (§1) The tests for pre-emergence herbicide activity are conducted as follows:
(§2) Topsoil is placed in an aluminum pan and compacted to a depth of 0.95 to 1.27 cm from the top of the pan. On the top of the soil is placed a predetermined number of seeds of each of several monocotyledonous and dicotyledonous annual plant species and/or vegetative propagules of various perennial plant species. A known amount of the active ingredient dissolved or suspended in an organic solvent, e.g., acetone, or water as carrier is then applied directly to the seed bed, which is then covered with a layer of untreated topsoil to level fill the pan. After treatment, the pans are moved to a greenhouse bench where they are watered from below as needed to give adequate moisture for germination and growth.
(§3) Approximately 10-14 days (usually 11 days) after seeding and treating, the pans are observed and the results (% inhibition) are recorded.
(§4) Tables 7 and 7A below summarize the results of the pre-emergence herbicidal activity tests of compounds of this invention in weeds. The herbicidal rating shown in these tables is the percent inhibition of each plant species. The plant species usually regarded as weeds which are utilized in one set of tests, the data for which are shown in the tables, are identified by letter headings above the columns in accordance with the following legend: […]

Barnyardgrass [2] = assay: Pre-emergence herbicide test; settings: Echinochloa crus-galli, read-out: % plant inhibition (Bygr); for inhibition at 11210 g/ha: 11.21 kg/ha; for inhibition at 1120 g/ha: 1.12 kg/ha
Protocol: as §1, §2, §3, §4

Cocklebur [3] = assay: Pre-emergence herbicide test; settings: Xanthium strumarium, read-out: % plant inhibition (Cobu); for inhibition at 11210 g/ha: 11.21 kg/ha; for inhibition at 1120 g/ha: 1.12 kg/ha
Protocol: as §1, §2, §3, §4

Downy Brome [4] = assay: Pre-emergence herbicide test; settings: Bromus tectorum, read-out: % plant inhibition (Dobr); for inhibition at 11210 g/ha: 11.21 kg/ha; for inhibition at 1120 g/ha: 1.12 kg/ha
Protocol: as §1, §2, §3, §4

Indian Mustard [5] = assay: Pre-emergence herbicide test; settings: Brassica juncea, read-out: % plant inhibition (Inmu); for inhibition at 11210 g/ha: 11.21 kg/ha; for inhibition at 1120 g/ha: 1.12 kg/ha
Protocol: as §1, §2, §3, §4

Morningglory [6] = assay: Pre-emergence herbicide test; settings: Ipomoea, read-out: % plant inhibition (Mogl); for inhibition at 11210 g/ha: 11.21 kg/ha; for inhibition at 1120 g/ha: 1.12 kg/ha
Protocol: as §1, §2, §3, §4

Seedling johnsongrass [7] = assay: Pre-emergence herbicide test; settings: Sorghum halepense, read-out: % plant inhibition (Sejg); for inhibition at 11210 g/ha: 11.21 kg/ha; for inhibition at 1120 g/ha: 1.12 kg/ha
Protocol: as §1, §2, §3, §4

Velvetleaf [8] = assay: Pre-emergence herbicide test; settings: Abutilon theophrasti, read-out: % plant inhibition (Vele); for inhibition at 11210 g/ha: 11.21 kg/ha; for inhibition at 1120 g/ha: 1.12 kg/ha
Protocol: as §1, §2, §3, §4

Wild buckwheat [9] = assay: Pre-emergence herbicide test; settings: Fallopia convolvulus, read-out: % plant inhibition (Wibw); for inhibition at 11210 g/ha: 11.21 kg/ha; for inhibition at 1120 g/ha: 1.12 kg/ha
Protocol: as §1, §2, §3, §4

Yellow nutsedge [10] = assay: Pre-emergence herbicide test; settings: Cyperus, read-out: % plant inhibition (Yens); for inhibition at 11210 g/ha: 11.21 kg/ha; for inhibition at 1120 g/ha: 1.12 kg/ha
Protocol: as §1, §2, §3, §4

Annual bluegrass [11] = assay: Post-emergence herbicide test; settings: read-out: % plant inhibition (Anbg); for inhibition at 11210 g/ha: 11.21 kg/ha; for inhibition at 1120 g/ha: 1.12 kg/ha
From the text: (§5) Topsoil is placed in aluminum pans having holes in the bottom and compacted to a depth of 0.95 to 1.27 cm from the top of the pan. A predetermined number of seeds of each of several dicotyledonous and monocotyledonous annual plant species and/or vegetative propagules for the perennial plant species are placed on the soil and pressed into the soil surface. The seeds and/or vegetative propagules are covered with soil and leveled. The pans are then placed on a bench in the greenhouse and watered from below as needed. After the plants reach the desired age (two to three weeks), each pan, is removed individually to a spraying chamber and sprayed by means of an atomizer, operating at a spray pressure of 170.3 kPa (10 psig) at the application rates noted. In the spray solution is an amount of an emulsifying agent mixture to give a spray solution or suspension which contains about 0.4% by volume of the emulsifier. The spray solution or suspension contains a sufficient amount of the candidate chemical in order to give application rates of the active ingredient corresponding to those shown in Tables 8 and 8A, while applying a total amount of solution or suspension equivalent to 1870 L/Ha (200 gallons/acre). The pans were returned to the greenhouse and watered as before and the injury to the plants as compared to the control is observed at approximately 10-14 days (usually 11 days) and in some instances observed again at 24-28 days (usually 25 days) after spraying. The post-emergent herbicidal activity shown in these tables is the percent inhibition of each plant species.

Barnyardgrass [12] = assay: Post-emergence herbicide test; settings: Echinochloa crus-galli, read-out: % plant inhibition (Bygr); for inhibition at 11210 g/ha: 11.21 kg/ha; for inhibition at 1120 g/ha: 1.12 kg/ha
From the text: as §5

Cocklebur [13] = assay: Post-emergence herbicide test; settings: Xanthium strumarium, read-out: % plant inhibition (Cobu); for inhibition at 11210 g/ha: 11.21 kg/ha; for inhibition at 1120 g/ha: 1.12 kg/ha
From the text: as §5

Downy Brome [14] = assay: Post-emergence herbicide test; settings: Bromus tectorum, read-out: % plant inhibition (Dobr); for inhibition at 11210 g/ha: 11.21 kg/ha; for inhibition at 1120 g/ha: 1.12 kg/ha
From the text: as §5

Indian Mustard [15] = assay: Post-emergence herbicide test; settings: Brassica juncea, read-out: % plant inhibition (Inmu); for inhibition at 11210 g/ha: 11.21 kg/ha; for inhibition at 1120 g/ha: 1.12 kg/ha
From the text: as §5

Morningglory [16] = assay: Post-emergence herbicide test; settings: Ipomoea, read-out: % plant inhibition (Mogl); for inhibition at 11210 g/ha: 11.21 kg/ha; for inhibition at 1120 g/ha: 1.12 kg/ha
From the text: as §5

Seedling johnsongrass [17] = assay: Post-emergence herbicide test; settings: Sorghum halepense, read-out: % plant inhibition (Sejg); for inhibition at 11210 g/ha: 11.21 kg/ha; for inhibition at 1120 g/ha: 1.12 kg/ha
From the text: as §5

Velvetleaf [18] = assay: Post-emergence herbicide test; settings: Abutilon theophrasti, read-out: % plant inhibition (Vele); for inhibition at 11210 g/ha: 11.21 kg/ha; for inhibition at 1120 g/ha: 1.12 kg/ha
From the text: as §5

Wild buckwheat [19] = assay: Post-emergence herbicide test; settings: Fallopia convolvulus, read-out: % plant inhibition (Wibw); for inhibition at 11210 g/ha: 11.21 kg/ha; for inhibition at 1120 g/ha: 1.12 kg/ha
From the text: as §5

Yellow nutsedge [20] = assay: Post-emergence herbicide test; settings: Cyperus, read-out: % plant inhibition (Yens); for inhibition at 11210 g/ha: 11.21 kg/ha; for inhibition at 1120 g/ha: 1.12 kg/ha
From the text: as §5

## Cn1nc(-c2cc(Oc3ccc(C(F)(F)F)cc3Cl)c(Cl)cc2F)c(Cl)c1C(F)(F)F [Compound 203]
Annual bluegrass [1]
  inhibition at 11210 g/ha: 0%
Barnyardgrass [2]
  inhibition at 11210 g/ha: 0%
Cocklebur [3]
  inhibition at 11210 g/ha: 20%
Downy Brome [4]
  inhibition at 11210 g/ha: 10%
Indian Mustard [5]
  inhibition at 11210 g/ha: 0%
Morningglory [6]
  inhibition at 11210 g/ha: 10%
Seedling johnsongrass [7]
  inhibition at 11210 g/ha: 20%
Velvetleaf [8]
  inhibition at 11210 g/ha: 0%
Wild buckwheat [9]
  inhibition at 11210 g/ha: 0%
Yellow nutsedge [10]
  inhibition at 11210 g/ha: 0%
Annual bluegrass [11]
  inhibition at 11210 g/ha: 20%
Barnyardgrass [12]
  inhibition at 11210 g/ha: 50%
Cocklebur [13]
  inhibition at 11210 g/ha: 60%
Downy Brome [14]
  inhibition at 11210 g/ha: 30%
Indian Mustard [15]
  inhibition at 11210 g/ha: 60%
Morningglory [16]
  inhibition at 11210 g/ha: 60%
Seedling johnsongrass [17]
  inhibition at 11210 g/ha: 60%
Velvetleaf [18]
  inhibition at 11210 g/ha: 100%
Wild buckwheat [19]
  inhibition at 11210 g/ha: 90%
Yellow nutsedge [20]
  inhibition at 11210 g/ha: 0%

## Cn1nc(-c2cc(C(C)(C)C#N)c(Cl)cc2F)c(Cl)c1C(F)(F)F [Compound 103]
Annual bluegrass [1]
  inhibition at 1120 g/ha: 20%
Barnyardgrass [2]
  inhibition at 1120 g/ha: 20%
Cocklebur [3]
  inhibition at 1120 g/ha: 0%
Downy Brome [4]
  inhibition at 1120 g/ha: 70%
Indian Mustard [5]
  inhibition at 1120 g/ha: 40%
Morningglory [6]
  inhibition at 1120 g/ha: 60%
Seedling johnsongrass [7]
  inhibition at 1120 g/ha: 40%
Velvetleaf [8]
  inhibition at 1120 g/ha: 50%
Wild buckwheat [9]
  inhibition at 1120 g/ha: 100%
Yellow nutsedge [10]
  inhibition at 1120 g/ha: 0%
Annual bluegrass [11]
  inhibition at 1120 g/ha: 40%
Barnyardgrass [12]
  inhibition at 1120 g/ha: 80%
Cocklebur [13]
  inhibition at 1120 g/ha: 60%
Downy Brome [14]
  inhibition at 1120 g/ha: 30%
Indian Mustard [15]
  inhibition at 1120 g/ha: 70%
Morningglory [16]
  inhibition at 1120 g/ha: 80%
Seedling johnsongrass [17]
  inhibition at 1120 g/ha: 70%
Velvetleaf [18]
  inhibition at 1120 g/ha: 100%
Wild buckwheat [19]
  inhibition at 1120 g/ha: 100%
Yellow nutsedge [20]
  inhibition at 1120 g/ha: 10%

## C#CCOc1cc(-c2nn(C)c(C(F)(F)F)c2Cl)c(F)cc1Br [Compound 96]
Annual bluegrass [1]
  inhibition at 1120 g/ha: 100%
Barnyardgrass [2]
  inhibition at 1120 g/ha: 80%
Cocklebur [3]
  inhibition at 1120 g/ha: 60%
Downy Brome [4]
  inhibition at 1120 g/ha: 100%
Indian Mustard [5]
  inhibition at 1120 g/ha: 100%
Morningglory [6]
  inhibition at 1120 g/ha: 100%
Seedling johnsongrass [7]
  inhibition at 1120 g/ha: 90%
Velvetleaf [8]
  inhibition at 1120 g/ha: 100%
Wild buckwheat [9]
  inhibition at 1120 g/ha: 100%
Yellow nutsedge [10]
  inhibition at 1120 g/ha: 20%
Annual bluegrass [11]
  inhibition at 1120 g/ha: 100%
Barnyardgrass [12]
  inhibition at 1120 g/ha: 100%
Cocklebur [13]
  inhibition at 1120 g/ha: 90%
Downy Brome [14]
  inhibition at 1120 g/ha: 100%
Indian Mustard [15]
  inhibition at 1120 g/ha: 100%
Morningglory [16]
  inhibition at 1120 g/ha: 100%
Seedling johnsongrass [17]
  inhibition at 1120 g/ha: 100%
Velvetleaf [18]
  inhibition at 1120 g/ha: 100%
Wild buckwheat [19]
  inhibition at 1120 g/ha: 100%
Yellow nutsedge [20]
  inhibition at 1120 g/ha: 40%

## Cn1nc(C(F)(F)Cl)c(Cl)c1-c1ccc(Cl)cc1 [Compound 67]
Annual bluegrass [1]
  inhibition at 11210 g/ha: 40%
Barnyardgrass [2]
  inhibition at 11210 g/ha: 0%
Cocklebur [3]
  inhibition at 11210 g/ha: 0%
Downy Brome [4]
  inhibition at 11210 g/ha: 40%
Indian Mustard [5]
  inhibition at 11210 g/ha: 50%
Morningglory [6]
  inhibition at 11210 g/ha: 90%
Seedling johnsongrass [7]
  inhibition at 11210 g/ha: 40%
Velvetleaf [8]
  inhibition at 11210 g/ha: 80%
Wild buckwheat [9]
  inhibition at 11210 g/ha: 90%
Yellow nutsedge [10]
  inhibition at 11210 g/ha: 0%
Annual bluegrass [11]
  inhibition at 11210 g/ha: 20%
Barnyardgrass [12]
  inhibition at 11210 g/ha: 40%
Cocklebur [13]
  inhibition at 11210 g/ha: 20%
Downy Brome [14]
  inhibition at 11210 g/ha: 40%
Indian Mustard [15]
  inhibition at 11210 g/ha: 40%
Morningglory [16]
  inhibition at 11210 g/ha: 70%
Seedling johnsongrass [17]
  inhibition at 11210 g/ha: 80%
Velvetleaf [18]
  inhibition at 11210 g/ha: 80%
Wild buckwheat [19]
  inhibition at 11210 g/ha: 100%
Yellow nutsedge [20]
  inhibition at 11210 g/ha: 20%

Reference: US5530126A, “Process for the preparation of substituted 6-(pyrazol-3yl)-1,4-benzoxazin-3-ones” (Monsanto Company, priority 1994, dated 1996)
